Consider eight molecules from patent US20130178413A1, “HCV NS3 PROTEASE INHIBITORS” (priority 2010, published 2013).

Assay [1] addresses NS3/4A protease gt 3a (Hepatitis C virus genotype 3a, UniProt Q81258). The assay is described as follows: HCV NS3 protease time-resolved fluorescence (TRF) assay, NS3/4A inhibitory activity (Ki), gt 3a. In kind it is biochemical. As to conditions: genotype 3a NS3/4A; read-out: Enzyme Activity gt 3a Ki. Put shortly:
(§1)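 NS3/4A protease (gt 1b, 1b A156V, 3a) pre-incubated 30 min with inhibitor in 50 mM HEPES pH 7.5, 150 mM NaCl, 15% glycerol, 0.15% Triton X-100, 10 mM DTT, 0.1% PEG 8000; 100 nM TRF peptide substrate, 1 h at room temperature, quenched with MES pH 5.5. Time-resolved fluorescence (ex 340/em 615 nm); four-parameter IC50 converted to Ki via IC50=Ki(1+[S]/KM).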

Assay [2] addresses NS3/4A protease gt 1b (Hepatitis C virus genotype 1b, UniProt P26663). Put plainly: HCV NS3 protease time-resolved fluorescence (TRF) assay, NS3/4A inhibitory activity (Ki), gt 1b. In kind it is biochemical. Conditions: genotype 1b NS3/4A; read-out: Enzyme Activity gt 1b Ki. Put shortly:
as §1

The test system of assay [3] is gt 1b Replicon. The assay is described as follows: HCV replicon assay, compound inhibitory potency (Replicon EC50). In kind it is cell-based. As to conditions: Hepatitis C virus, GT1B. In outline: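 Stable replicon-harboring cells (neomycin phosphotransferase, some luciferase:Neor fusion) plated with compound dilution series without G418, incubated 24-48 h. Read-out: RNA by 32P-probe protection or TaqMan normalized to cyclophilin A RNA, or luciferase activity; EC50 as percent of DMSO control, four-parameter fit.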

In assay [4] the target is NS3/4A protease gt 1b A156V (Hepatitis C virus genotype 1b, UniProt P26663, A1182V). The assay is described as follows: HCV NS3 protease time-resolved fluorescence (TRF) assay, NS3/4A inhibitory activity (Ki), gt 1b A156V mutant. In kind it is biochemical, hepatitis C virus (HCV). In outline: as §1
The mark [5] stands for this setting: 10% Fetal Bovine Serum, read-out: gt 1b Replicon EC50 10% FBS.
Where [6] appears, read: 50% Normal Human Serum, read-out: gt 1b Replicon EC50 50% NHS.

Where two headings read alike, the source gives them in different places.

What is called Ki is the equilibrium dissociation constant of an inhibitor or competing ligand from its target. As usually defined, the EC50 is the concentration needed to bring the measured effect to its halfway point. For `C=C[C@@H]1C[C@]1(NC(=O)[C@@H]1C[C@@H]2CN1C(=O)[C@H](C1CCCC1)NC(=O)O[C@]1(C)C[C@H]1CC/C=C/Cn1c(nc3cc(C)ccc3c1=O)O2)C(=O)NS(=O)(=O)C1CC1` [Example I-23, (1aR,5S,8S,10R,20E,23aR)-5-cyclopentyl-N-{(1R,2S)-1-[(cyclopropylsulfonyl)carbamoyl]-2-ethenylcyclopropyl}-1a,14-dimethyl-3,6,17-trioxo-1,1a,3,4,5,6,9,10,19,22,23,23a-dodecahydro-8H,17H-7,10-methano cyclopropa[18,19][1, 10,3,6,12]dioxatriaza cyclononadecino[11,12-b]quinazoline-8-carboxamide], the Ki in assay [1] is 1 nM; in assay [2], 0.02 nM; in assay [4], 1.2 nM. Besides, the EC50 in assay [3] (setting [5]) was determined as 2 nM; in assay [3] (setting [6]) it was 6 nM.

Take `C=C[C@@H]1C[C@]1(NC(=O)[C@@H]1C[C@@H]2CN1C(=O)[C@H](C1CCCC1)NC(=O)O[C@]1(C)C[C@H]1CC/C=C/Cn1c(nc3cc(C)ccc3c1=O)O2)C(=O)NS(=O)(=O)C1(C)CC1` [Example I-24, (1aR,5S,8S,10R,20E,23aR)-5-cyclopentyl-N-[(1R,2S)-2-ethenyl-1-{[(1-methylcyclopropyl)sulfonyl]carbamoyl}cyclopropyl]-1a,14-dimethyl-3,6,17-trioxo-1,1a,3,4,5,6,9,10,19,22,23,23a-dodecahydro-8H,17H-7,10-methanocyclo propa[18,19][1,10,3,6,12] dioxatriazacyclo nonadecino[11,12-b]quinazoline-8-carboxamide]: the inhibition constant Ki in assay [1] turned out to be 0.7 nM; in assay [2] it was 0.02 nM; in assay [4] it was 0.9 nM. The EC50 was 2 nM in assay [3] (setting [5]) and 8.5 nM in assay [3] (setting [6]).

`C=C[C@@H]1C[C@]1(NC(=O)[C@@H]1C[C@@H]2CN1C(=O)[C@H](C1CCCC1)NC(=O)O[C@]1(C)C[C@H]1CC/C=C/Cn1c(nc3cc(Cl)ccc3c1=O)O2)C(=O)NS(=O)(=O)C1CC1` [Example I-26, (1aR,5S,8S,10R,20E,23aR)-14-chloro-5-cyclopentyl-N-{(1R,2S)-1-[(cyclopropylsulfonyl)carbamoyl]-2-ethenylcyclopropyl}-1a-methyl-3,6,17-trioxo-1,1a,3,4,5,6,9, 10,19,22,23,23a-dodecahydro-8H,17H-7,10-methano cyclopropa[18,19][1,10,3,6,12]dioxatriaza cyclononadecino[11,12-b]quinazoline-8-carboxamide]: the figures for the Ki in assay [1], in assay [2] and in assay [4] were 0.8 nM, 0.02 nM and 1.6 nM, respectively. In addition, the values for the EC50 in assay [3] (setting [5]) and in assay [3] (setting [6]) were 3 nM and 13 nM, respectively.

With `C=C[C@@H]1C[C@]1(NC(=O)[C@@H]1C[C@@H]2CN1C(=O)[C@H](C1CCCC1)NC(=O)O[C@]1(C)C[C@H]1CCCCCn1c(nc3cc(C)ccc3c1=O)O2)C(=O)NS(=O)(=O)C1CC1` [Example I-27, (1aR,5S,8S,10R,23aR)-5-cyclopentyl-N-{(1R,2S)-1-[(cyclopropylsulfonyl)carbamoyl]-2-ethenylcyclopropyl}-1a,14-dimethyl-3,6,17-trioxo-1,1a,3,4,5,6,9, 10,19,22,21,22,23,23a-tetradecahydro-8H,17H-7,10-methanocyclopropa[18, 19][1,10,3,6,12]dioxatri azacyclononadecino [11,12-b]quinazoline-8-carboxamide], the results for the inhibition constant Ki in assay [1], in assay [2] and in assay [4] were 2.8 nM, 0.04 nM and 4.1 nM, respectively. In addition, the EC50 in assay [3] (setting [5]) was found to be 2 nM; in assay [3] (setting [6]), 6 nM.

Turning to `C=C[C@@H]1C[C@]1(NC(=O)[C@@H]1C[C@@H]2CN1C(=O)[C@H](C1CCCC1)NC(=O)O[C@]1(C)C[C@H]1CCCCCc1nc3ccccc3nc1O2)C(=O)NS(=O)(=O)C1CC1` [Example I-28, (1aR,5S,8S,10R,22aR)-5-cyclopentyl-N-{(1R,2S)-1-[(cyclopropylsulfonyl)carbamoyl]-2-ethenylcyclopropyl}-1a-methyl-3,6-dioxo-1,1a,3,4,5,6,9,10,18,19, 20,21,22,22a-tetradecahydro-8H-7,10-methanocyclo propa[18,19][1,10,3,6] dioxadiazacyclonona decino[11,12-b]quinoxaline-8-carboxamide], the Ki amounted to 3.2 nM in assay [1], 0.04 nM in assay [2] and 2.7 nM in assay [4]. Also, the EC50 worked out at 2 nM in assay [3] (setting [5]) and 10 nM in assay [3] (setting [6]).

Turning to `C=C[C@@H]1C[C@]1(NC(=O)[C@@H]1C[C@@H]2CN1C(=O)[C@H](C1CCCC1)NC(=O)O[C@]1(C)C[C@H]1CCCCCc1nc3ccccc3nc1O2)C(=O)NS(=O)(=O)C1(C)CC1` [Example I-29, (1aR,5S,8S,10R,22aR)-5-cyclopentyl-N-[(1R,2S)-2-ethenyl-1-{[(1-methylcyclopropyl)sulfonyl]carbamoyl}cyclopropyl]-1a-methyl-3,6-dioxo-1,1a,3,4,5,6,9,10,18,19, 20,21,22,22a-tetradecahydro-8H-7,10-methanocyclo propa[18,19][1,10,3,6] dioxadiazacyclonona decino[11,12-b]quinoxaline-8-carboxamide], the Ki in assay [1] was 3.1 nM; in assay [2], 0.04 nM; in assay [4], 1.7 nM. The results for the EC50 in assay [3] (setting [5]) and in assay [3] (setting [6]) were 3 nM and 9 nM, respectively.

Take `C=C[C@@H]1C[C@]1(NC(=O)[C@@H]1C[C@@H]2CN1C(=O)[C@H](C1CCCC1)NC(=O)O[C@]1(C)C[C@H]1CCCCCc1nc3cccc(OC)c3nc1O2)C(=O)NS(=O)(=O)C1CC1` [Example I-30, (1aR,5S,8S,10R,22aR)-5-cyclopentyl-N-{(1R,2S)-1-[(cyclopropylsulfonyl)carbamoyl]-2-ethenylcyclopropyl}-13-methoxy-1a-methyl-3,6-dioxo-1,1a,3,4,5,6,9,10,18,19,20,21,22,22a-tetradecahydro-8H-7,10-methanocyclo propa[18,19][1,10,3,6] dioxadiazacyclonona decino[11,12-b]quinoxaline-8-carboxamide]: the figures for the Ki in assay [1], in assay [2] and in assay [4] were 2.2 nM, 0.02 nM and 1.9 nM, respectively. For the same molecule, the EC50 was 1 nM in assay [3] (setting [5]) and 5 nM in assay [3] (setting [6]).

Turning to `CC[C@@H]1C[C@]1(NC(=O)[C@@H]1C[C@@H]2CN1C(=O)[C@H](C1CCCC1)NC(=O)O[C@]1(C)C[C@H]1CC/C=C/Cn1c(nc3cc(C)ccc3c1=O)O2)C(=O)NS(=O)(=O)C1CC1` [Example I-31, (1aR,5S,8S,10R,20E,23aR)-5-cyclopentyl-N-{(1R,2R)-1-[(cyclopropylsulfonyl)carbamoyl]-2-ethylcyclopropyl}-1a,14-dimethyl-3,6,17-trioxo-1,1a,3,4,5,6,9,10,19,22,23,23a-dodecahydro-8H,17H-7,10-methanocyclo propa[18,19][1,10,3,6, 12]dioxatriazacyclo nonadecino[11,12-b]quinazoline-8-carboxamide], the Ki in assay [1] was found to be 5.3 nM; in assay [2], 0.1 nM; in assay [4] it was 13.3 nM. Moreover, the EC50 in assay [3] (setting [5]) was 4 nM; in assay [3] (setting [6]), 10 nM.
